ChEMBL document CHEMBL6096738, “Optimization of Single Relaxin B-Chain Peptide Leads to the Identification of R2R01, a Potent, Long-Acting RXFP1 Agonist for Cardiovascular and Renal Diseases” (J Med Chem, 2025)
Starred links: 1 amine or outer side, 2 acyl side, 3 side chain; linkers in the order of their positions; H or OH if unused. Non-standard residues stand in square brackets, D forms with d. Residues, ends and D or L forms follow the SMILES beside them. Groups on a side chain read outwards from the residue. *: point of attachment. X2 = CCCCCCCCCCCCCCCC(=O)N[C@@H](CCC(=O)N[C@@H](CCC(=O)N[C@@H](CCC(=O)NCCCOCCOCCOCCCNC(=O)CCC(=O)NCCCOCCOCCOCCCNC(=O)CCC(=O)NCCCOCCOCCOCCCN*)C(=O)O)C(=O)O)C(=O)O; X1 = CCCCCCCCCCCCCCCC(=O)N[C@@H](CCC(=O)N[C@@H](CCC(=O)N[C@@H](CCC(=O)NCCCOCCOCCOCCCNC(=O)CCC(=O)NCCCOCCOCCOCCCN*)C(=O)O)C(=O)O)C(=O)O; γGlu = O=C(O)[C@H](CCC(=O)[*:2])N[*:1]; Stearoyl = CCCCCCCCCCCCCCCCCC(=O)*; Suc = O=C(CCC(=O)[*:2])[*:1]; αMeK = C[C@](N)(CCCCN)C(=O)O; Nle = CCCC[C@H](N)C(=O)O; AEEA = NCCOCCOCC(=O)O; Aib = CC(C)(N)C(=O)O

Key:
[1] = Half-life in male Beagle dog at 1 mg/kg, iv measured after 198 hrs by LC-HRMS analysis; assay type: ADME, organism-based, Canis lupus familiaris; details: in vivo
[2] = Induction of mast cell degranulation in human LAD2 cells assessed as beta-hexosaminidase release by measuring 4-methylumbelliferyl N-acetyl-beta-D-glucosaminide hydrolysis incubated for 30 mins by plate reader analysis; assay type: toxicity, cell-based; details: probe 4-methylumbelliferyl N-acetyl-beta-D-glucosaminide
[3] = tested on: Rattus norvegicus; experiment: Chronotropic effect in pithed male Sprague-Dawley rat assessed as increase in heart rate at 1 mg/kg, iv measured after 60 mins relative to control; assay type: functional
[4] = Induction of mast cell degranulation in human LAD2 cells assessed as beta-hexosaminidase release by measuring maximal efficacy of 4-methylumbelliferyl N-acetyl-beta-D-glucosaminide hydrolysis at 33 uM incubated for 30 mins by plate reader analysis relative to control; assay type: toxicity, cell-based; details: probe 4-methylumbelliferyl N-acetyl-beta-D-glucosaminide
[5] = Half-life in male Sprague-Dawley rat at 1 mg/kg, iv measured after 198 hrs by LC-HRMS analysis; assay type: ADME, organism-based; details: in vivo
[6] = molecular target: T1, Relaxin receptor 1 (Homo sapiens) (UniProt Q9HBX9); experiment: Agonist activity at human RXFP1 expressed in 2%HSA treated human OVCAR-5 cells assessed as intracellular cAMP accumulation by measuring maximal efficacy incubated for 30 mins with 2% HSA pretreated compound by HTRF assay relative to control; assay type: functional, cell-based; details: filed as agonist
T1 sequence (whole entry): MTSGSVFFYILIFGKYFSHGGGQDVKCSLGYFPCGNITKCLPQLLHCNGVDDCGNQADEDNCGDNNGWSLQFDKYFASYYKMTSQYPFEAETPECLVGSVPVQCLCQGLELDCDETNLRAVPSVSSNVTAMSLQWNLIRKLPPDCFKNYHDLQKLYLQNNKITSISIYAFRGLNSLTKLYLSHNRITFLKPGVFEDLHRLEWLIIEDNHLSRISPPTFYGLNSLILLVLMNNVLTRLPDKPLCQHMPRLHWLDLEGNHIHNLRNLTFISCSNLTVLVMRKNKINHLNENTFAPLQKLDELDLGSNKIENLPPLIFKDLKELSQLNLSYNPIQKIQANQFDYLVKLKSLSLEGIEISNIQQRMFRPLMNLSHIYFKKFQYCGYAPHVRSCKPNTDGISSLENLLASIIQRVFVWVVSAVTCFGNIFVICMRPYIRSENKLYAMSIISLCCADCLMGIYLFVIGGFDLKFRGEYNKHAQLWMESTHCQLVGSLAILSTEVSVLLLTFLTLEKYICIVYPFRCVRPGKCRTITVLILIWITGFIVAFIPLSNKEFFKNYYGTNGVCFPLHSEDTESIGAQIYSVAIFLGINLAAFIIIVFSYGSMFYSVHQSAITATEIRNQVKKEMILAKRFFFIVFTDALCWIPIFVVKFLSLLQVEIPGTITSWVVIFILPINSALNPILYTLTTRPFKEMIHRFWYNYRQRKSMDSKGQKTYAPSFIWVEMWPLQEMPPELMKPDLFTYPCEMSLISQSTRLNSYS

[7] = Drug metabolism in male Beagle dog assessed as fatty acid chain oxidation mediated M+16 metabolite formation by measuring metabolite to parent compound AUC ratio at 3 mg/kg, sc measured after 198 hrs by LC-HRMS analysis; assay type: ADME, organism-based, Canis lupus familiaris; details: in vivo
[8] = Drug metabolism in male Sprague-Dawley rat assessed as fatty acid chain oxidation mediated M+16 metabolite formation by measuring metabolite to parent compound AUC ratio at 1 mg/kg, iv measured after 198 hrs by LC-HRMS analysis; assay type: ADME, organism-based; details: in vivo
[9] = Drug metabolism in male Sprague-Dawley rat assessed as fatty acid chain oxidation mediated M+16 metabolite formation by measuring metabolite to parent compound AUC ratio at 3 mg/kg, sc measured after 198 hrs by LC-HRMS analysis; assay type: ADME, organism-based; details: in vivo
[10] = Bioavailability in male Sprague-Dawley rat at 3 mg/kg, sc measured after 198 hrs by LC-HRMS analysis; assay type: ADME, organism-based; details: in vivo
[11] = Drug metabolism in female Gottingen pig assessed as fatty acid chain oxidation mediated M+16 metabolite formation by measuring metabolite to parent compound AUC ratio at 1 mg/kg, sc measured after 198 hrs by LC-HRMS analysis; assay type: ADME, organism-based, Sus scrofa; details: in vivo
[12] = molecular target: T1, Relaxin receptor 1 (Homo sapiens); experiment: Agonist activity at human RXFP1 expressed in human OVCAR-5 cells assessed as intracellular cAMP accumulation by measuring maximal efficacy incubated for 30 mins by HTRF assay relative to control; assay type: functional, cell-based; details: filed as agonist
[13] = Drug metabolism in female Gottingen pig assessed as fatty acid chain oxidation mediated M+16 metabolite formation by measuring metabolite to parent compound AUC ratio at 1 mg/kg, iv measured after 198 hrs by LC-HRMS analysis; assay type: ADME, organism-based, Sus scrofa; details: in vivo
[14] = molecular target: T2, Relaxin receptor 1 (Homo sapiens, UniProt Q9HBX9); experiment: Agonist activity at human RXFP1 expressed in human OVCAR-5 cells assessed as intracellular cAMP accumulation incubated for 30 mins by HTRF assay; assay type: functional, cell-based
T2 sequence (Q9HBX9 whole entry): T1 sequence (whole entry)

[15] = molecular target: T2, Relaxin receptor 1; experiment: Agonist activity at human RXFP1 expressed in 2%HSA treated human OVCAR-5 cells assessed as intracellular cAMP accumulation incubated for 30 mins with 2% HSA pretreated compound by HTRF assay; assay type: functional, cell-based
[16] = Drug metabolism in male Beagle dog assessed as fatty acid chain oxidation mediated M+16 metabolite formation by measuring metabolite to parent compound AUC ratio at 1 mg/kg, iv measured after 198 hrs by LC-HRMS analysis; assay type: ADME, organism-based, Canis lupus familiaris; details: in vivo
[17] = Induction of immune response in human CD4+ T cells assessed as increase in auto reactive T cells at 3 uM preincubated with monocyte-derived immature dendritic cells followed by T cell addition and further stimulated on day 7 and 14 with autologous dendritic cells and measured after 5 days post last stimulation by IFNgamma-Elispot analysis; assay type: toxicity, cell-based; details: 120 h
[18] = Half-life in female Gottingen pig at 1 mg/kg, iv measured after 198 hrs by LC-HRMS analysis; assay type: ADME, organism-based, Sus scrofa; details: in vivo
[19] = Cmax in male Sprague-Dawley rat at 3 mg/kg, sc measured after 198 hrs by LC-HRMS analysis; assay type: ADME, organism-based; details: in vivo
[20] = AUC (0 to 24 hrs) in male Sprague-Dawley rat at 1 mg/kg, iv measured after 198 hrs by LC-HRMS analysis; assay type: ADME, organism-based; details: in vivo
[21] = tested on: Rattus norvegicus; experiment: Chronotropic effect in pithed male Sprague-Dawley rat assessed as increase in heart rate at 0.3 mg/kg, iv measured after 60 mins relative to control; assay type: functional; details: 1 h
[22] = Bioavailability in female Gottingen pig at 1 mg/kg, sc measured after 198 hrs by LC-HRMS analysis; assay type: ADME, organism-based, Sus scrofa; details: in vivo
[23] = tested on: Rattus norvegicus; experiment: Chronotropic effect in telemetered male Sprague-Dawley rat assessed as increase in heart rate administered subcutaneously and measured after 48 hrs; assay type: functional, organism-based; details: dose 0.1-1 mg/kg, route sc

half-life [1] [h] | half-life [5] [h] | Emax [6] [%] | Ratio AUC [8] | bioavailability [10] [%] | Emax [12] [%] | Ratio AUC [13] | EC50 [14] [nM] | EC50 [15] [nM] | Ratio AUC [16] | half-life [18] [h] | Cmax [19] [nM] | AUC(0-t) at 198 h [20] [µM·h] | bioavailability [22] [%] | SMILES | EC50 at 30 min [2] [nM] | Emax at 0.5 h, 33 µM [4] [%] | Activity [21] [%] | also measured
3.4 | 3.9 | 89 | < 0.1 | 74 | 84 | 4 | 0.2 | 18.4 | 19.4 | 7 | 1500 | 9.4 | – | CCCCCCCCCCCCCCCCCC(=O)N[C@@H](CCC(=O)N[C@@H](CCC(=O)N[C@@H](CCC(=O)NCCOCCOCC(=O)NCCOCCOCC(=O)NCCOCCOCC(=O)NCCCC[C@H](NC(=O)[C@H](CCCCNC(C)=O)NC(=O)[C@H](CCCCN)NC(=O)[C@H](CCCNC(=N)N)NC(=O)C(C)(C)NC(=O)[C@H](CO)NC(=O)[C@H](Cc1c[nH]c2ccccc12)NC(=O)[C@@H](NC(=O)[C@H](CO)NC(=O)[C@H](CCCC)NC(=O)CNC(=O)[C@H](CCC(=O)O)NC(=O)C(C)(C)NC(=O)C(C)(C)NC(=O)[C@@H](NC(=O)[C@H](CCCCNC(C)=O)NC(=O)[C@H](C)NC(=O)[C@H](CCCNC(=N)N)NC(=O)[C@@H](NC(=O)[C@H](CCCCN)NC(=O)[C@H](CCC(=O)O)NC(=O)[C@H](CCCNC(=N)N)NC(=O)CNC(=O)[C@H](CCC(=O)O)NC(=O)[C@H](CC(C)C)NC(C)=O)C(C)C)[C@@H](C)CC)[C@@H](C)O)C(N)=O)C(=O)O)C(=O)O)C(=O)O (Ac-LEGREKVRAK(Ac)I[Aib][Aib]EG[Nle]STWS[Aib]RKK(Ac)K([AEEA-AEEA-AEEA-γGlu-γGlu-γGlu-Stearoyl])-NH2) | 1260 | 59.6 | – | Activity [3]: 29%; Ratio AUC [7]: 6.6; Ratio AUC [9]: 0.104; Ratio AUC [11]: 4; Activity [17]: Non-toxic
8.8 | 7.8 | 86 | < 0.01 | – | 97 | 0.25 | – | 26.5 | 0.11 | 22.3 | – | – | 74 | CCCCCCCCCCCCCCCC(=O)N[C@@H](CCC(=O)N[C@@H](CCC(=O)N[C@@H](CCC(=O)NCCCOCCOCCOCCCNC(=O)CCC(=O)NCCCOCCOCCOCCCNC(=O)CCC(=O)NCCCOCCOCCOCCCNC(=O)CCC(=O)NCCCC[C@H](NC(=O)CNC(=O)[C@H](CCC(=O)O)NC(=O)C(C)(C)NC(=O)C(C)(C)NC(=O)[C@@H](NC(=O)[C@H](CCCCNC(C)=O)NC(=O)[C@H](C)NC(=O)[C@H](CCCNC(=N)N)NC(=O)[C@@H](NC(=O)[C@H](CCCCN)NC(=O)[C@H](CCC(=O)O)NC(=O)[C@H](CCCNC(=N)N)NC(=O)CNC(=O)[C@H](CCC(=O)O)NC(=O)[C@H](CC(C)C)NC(C)=O)C(C)C)[C@@H](C)CC)C(=O)N[C@@H](CO)C(=O)N[C@H](C(=O)N[C@@H](Cc1ccccc1)C(=O)N[C@@H](CO)C(=O)N[C@@](C)(CCCCN)C(=O)N[C@@H](CCCNC(=N)N)C(=O)N[C@@H](C)C(=O)N[C@@H](CCCCNC(C)=O)C(N)=O)[C@@H](C)O)C(=O)O)C(=O)O)C(=O)O (Ac-LEGREKVRAK(Ac)I[Aib][Aib]EGK([Suc-X2])STFS[αMeK]RAK(Ac)-NH2) | > 33000 | 48 | 40.3 | Activity [23]: Dose-dependent-effect
9.2 | 8.7 | 81 | – | 69 | 95 | 0.32 | 1.28 | 145 | 0.33 | 27.2 | 2000 | 19.5 | 87 | CCCCCCCCCCCCCCCC(=O)N[C@@H](CCC(=O)N[C@@H](CCC(=O)N[C@@H](CCC(=O)NCCCOCCOCCOCCCNC(=O)CCC(=O)NCCCOCCOCCOCCCNC(=O)CCC(=O)NCCCC[C@H](NC(=O)CNC(=O)[C@H](CCC(=O)O)NC(=O)C(C)(C)NC(=O)C(C)(C)NC(=O)[C@@H](NC(=O)[C@H](CCCCNC(C)=O)NC(=O)[C@H](C)NC(=O)[C@H](CCCNC(=N)N)NC(=O)[C@@H](NC(=O)[C@H](CCCCN)NC(=O)[C@H](CCC(=O)O)NC(=O)[C@H](CCCNC(=N)N)NC(=O)CNC(=O)[C@H](CCC(=O)O)NC(=O)[C@H](CC(C)C)NC(C)=O)C(C)C)[C@@H](C)CC)C(=O)N[C@@H](CO)C(=O)N[C@H](C(=O)N[C@@H](Cc1c[nH]c2ccccc12)C(=O)N[C@@H](CO)C(=O)NC(C)(C)C(=O)N[C@@H](CCCNC(=N)N)C(=O)N[C@@H](CCCCN)C(=O)N[C@@H](CCCCNC(C)=O)C(N)=O)[C@@H](C)O)C(=O)O)C(=O)O)C(=O)O (Ac-LEGREKVRAK(Ac)I[Aib][Aib]EGK([Suc-X1])STWS[Aib]RKK(Ac)-NH2) | 5500 | 58 | 31.4 | –
